# Literature values, collected in paper PMC8583936, “Machine Learning Assisted Approach for Finding Novel High Activity Agonists of Human Ectopic Olfactory Receptors” (International Journal of Molecular Sciences, 2021).
# Where a name gives a salt, the structure may show the parent alone. Read-outs that look alike come from different tables or passages of the source.
# How the values were obtained:
# OR2W1 = biological target: T1, OR2W1 (Homo sapiens, UniProt Q9Y3N9); details: cited from earlier work
# T1 sequence (Q9Y3N9 1-320): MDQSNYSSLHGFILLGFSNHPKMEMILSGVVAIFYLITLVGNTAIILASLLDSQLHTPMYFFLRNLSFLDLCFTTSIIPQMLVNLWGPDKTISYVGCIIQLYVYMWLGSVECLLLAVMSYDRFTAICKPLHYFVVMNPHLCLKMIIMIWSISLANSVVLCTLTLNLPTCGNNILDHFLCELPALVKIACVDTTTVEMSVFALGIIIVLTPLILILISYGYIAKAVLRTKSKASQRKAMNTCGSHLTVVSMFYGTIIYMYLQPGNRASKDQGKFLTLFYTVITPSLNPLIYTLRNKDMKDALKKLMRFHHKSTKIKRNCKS
# OR1A1 = biological target: T2, OR1A1 (Homo sapiens, UniProt Q9P1Q5); details: cited from earlier work
# T2 sequence (Q9P1Q5 1-309): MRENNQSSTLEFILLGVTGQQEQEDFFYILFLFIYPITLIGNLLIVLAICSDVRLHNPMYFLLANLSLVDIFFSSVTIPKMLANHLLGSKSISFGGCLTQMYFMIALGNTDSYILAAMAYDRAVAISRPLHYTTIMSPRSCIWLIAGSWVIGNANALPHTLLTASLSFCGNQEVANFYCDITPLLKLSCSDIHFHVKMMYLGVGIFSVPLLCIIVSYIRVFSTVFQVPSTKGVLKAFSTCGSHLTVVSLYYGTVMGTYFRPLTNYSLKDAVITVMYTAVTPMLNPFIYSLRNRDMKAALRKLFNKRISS
# [1] = Table S2, ref Supplement references [2]-[12] as printed after each odorant name
# [2] = Table S1, ref Supplement references [1]-[9] as printed after each odorant name
Structure (SMILES),Class (agonist / non-agonist / antagonist / conflicting info.) for OR2W1 (OR2W1),Class (agonist / non-agonist / conflicting info.) for OR1A1 (OR1A1),Class (agonist / non-agonist / antagonist / conflicting info.) for OR2W1 (OR2W1; [1]),Class (agonist / non-agonist / conflicting info.) for OR1A1 (OR1A1; [2])
"CCC(=O)C(C)=O [2,3-pentanedione]",Non-agonist,Non-agonist,,
"CC1=NC(C)SC1C (stereo not shown) [2,4,5-trimethyl-2,5-dihydro-1,3-thiazole]",,,Antagonist,Non-agonist
"Cc1ccc(O)c(C)c1 [2,4-dimethylphenol]",Non-agonist,Non-agonist,,
"CCCC/C=C\C=C\C=O [2,4-nonadienal, (2e,4z)-]",,,Non-agonist,Non-agonist
"COc1cccc(OC)c1O [2,6-dimethoxyphenol]",,,Non-agonist,Non-agonist
"Cc1cccc(C)c1O [2,6-dimethylphenol]",Non-agonist,Non-agonist,,
CC(=O)C1=NCCS1 [2-Acetyl-2-thiazoline],,,Non-agonist,Non-agonist
CC(=O)c1ccco1 [2-Furyl methyl ketone],,,Non-agonist,Non-agonist
CCc1ccc(O)c(OC)c1 [2-Methoxy-4-ethylphenol],,,Non-agonist,Non-agonist
COc1ccc(C)cc1O [2-Methoxy-5-methylphenol],,,Non-agonist,Non-agonist
Cc1occc1S [2-Methyl-3-furanthiol],,,Non-agonist,Non-agonist
CCC(S)C(C)CO (stereo not shown) [2-Methyl-3-sulfanylpentan-1-ol],,,Non-agonist,Non-agonist
CCC(C)COC(C)=O (stereo not shown) [2-Methylbutyl acetate],,,Non-agonist,Non-agonist
O=C(O)Cc1ccccc1 [2-Phenylacetic acid],Non-agonist,Non-agonist,,
CC(=O)OCCc1ccccc1 [2-Phenylethyl acetate],,,Agonist,Agonist
CCC(=O)C(C)S (stereo not shown) [2-Sulfanylpentan-3-one],,,Non-agonist,Non-agonist
CC(=O)c1cnccn1 [2-acetylpyrazine],,,Non-agonist,Non-agonist
CCC(C)=O [2-butanone],Non-agonist,Non-agonist,,
O=C1Cc2ccccc2O1 [2-coumaranone],,,Non-agonist,Non-agonist
"CCCCCCC/C=C/C=O [2-decenal, (2e)-]",,,Non-agonist,Non-agonist
CCCCCC/C=C/C=O [2-enonenal],,,Non-agonist,Non-agonist
CCOc1nccs1 [2-ethoxythiazole],,,Agonist,Non-agonist
CCC1(O)C2(C)CCC(C2)C1(C)C (stereo not shown) [2-ethylfenchol],Conflicting info.,,,Conflicting info.
CCCCCC(C)O (stereo not shown) [2-heptanol],,,Agonist,Non-agonist
CCCCCC(C)=O [2-heptanone],,,Conflicting info.,Conflicting info.
CCCCC(C)=O [2-hexanone],Agonist,Non-agonist,,
"CCC/C=C/C=O [2-hexenal, (2e)-]",,,Non-agonist,Non-agonist

Structure (SMILES),Class (agonist / non-agonist / antagonist / conflicting info.) for OR2W1 (OR2W1),Class (agonist / non-agonist / conflicting info.) for OR1A1 (OR1A1),Class (agonist / non-agonist / antagonist / conflicting info.) for OR2W1 (OR2W1; [1]),Class (agonist / non-agonist / conflicting info.) for OR1A1 (OR1A1; [2])
COc1nccnc1CC(C)C [2-isobutyl-3-methoxypyrazine],,,Non-agonist,Non-agonist
COc1nccnc1C(C)C [2-isopropyl-3-methoxypyrazine],,,Non-agonist,Non-agonist
COc1cc(C)ccc1O [2-methoxy-4-methylphenol],,,Non-agonist,Non-agonist
CCCc1ccc(O)c(OC)c1 [2-methoxy-4-propylphenol],Non-agonist,Non-agonist,,
CCC(C)CO (stereo not shown) [2-methyl-1-butanol],Non-agonist,Non-agonist,,
CCC(C)C=O (stereo not shown) [2-methylbutyraldehyde],,,Non-agonist,Non-agonist
Cc1ccccc1O [2-methylphenol],Non-agonist,Non-agonist,,
CCCCCCCC(C)=O [2-nonanone],,,Agonist,Conflicting info.
"CCCCCC/C=C\C=O [2-nonenal, (2z)-]",,,Non-agonist,Non-agonist
CCCCCCC(C)=O [2-octanone],,,Agonist,Agonist
"CCCCC/C=C\C=O [2-octenal, (2z)-]",,,Non-agonist,Non-agonist
CCCC(C)=O [2-pentanone],,,Non-agonist,Non-agonist
CCCCCc1ccccn1 [2-pentylpyridine],,,Agonist,Agonist
SCCc1ccccc1 [2-phenylethanethiol],,,Agonist,Agonist
OCCc1ccccc1 [2-phenylethanol],,,Non-agonist,Non-agonist
CCC(=O)C1=NCCC1 [2-propionylpyrroline],,,Non-agonist,Non-agonist
CCCCCCCCC=CC=O [2-undecenal],,,Non-agonist,Non-agonist
"CCC(=O)C(=O)CC [3,4-hexanedione]",Agonist,Non-agonist,,
"CC/C=C\CCOC(C)=O [3-Hexenyl acetate, (3Z)-]",,,Non-agonist,Non-agonist
CCC(S)C(C)=O (stereo not shown) [3-Mercapto-2-pentanone],,,Non-agonist,Non-agonist
CC(C)(S)CCOC=O [3-Mercapto-3-methylbutyl formate],,,Non-agonist,Non-agonist
CCCC(S)CCOC(C)=O (stereo not shown) [3-Mercaptohexyl acetate],,,Agonist,Agonist
CC(C)CCO [3-Methyl-1-butanol],,,Non-agonist,Non-agonist
Cc1c[nH]c2ccccc12 [3-Methyl-1H-indole],,,Non-agonist,Non-agonist
"CCCCCC(=O)C(C)C(C)=O (stereo not shown) [3-Methyl-2,4-nonanedione]",,,Non-agonist,Agonist
CCCC(=O)C(C)CC (stereo not shown) [3-Methylheptan-4-one],,,Non-agonist,Non-agonist
